According to ChEMBL document CHEMBL3751755, “Developing steroidal aromatase inhibitors-an effective armament to win the battle against breast cancer” (Eur J Med Chem, 2015):

Key:
Aromatase [1] = target: T1, Aromatase (Homo sapiens, UniProt P11511); test: Competitive inhibition of aromatase (unknown origin)
T1 sequence (P11511 whole entry): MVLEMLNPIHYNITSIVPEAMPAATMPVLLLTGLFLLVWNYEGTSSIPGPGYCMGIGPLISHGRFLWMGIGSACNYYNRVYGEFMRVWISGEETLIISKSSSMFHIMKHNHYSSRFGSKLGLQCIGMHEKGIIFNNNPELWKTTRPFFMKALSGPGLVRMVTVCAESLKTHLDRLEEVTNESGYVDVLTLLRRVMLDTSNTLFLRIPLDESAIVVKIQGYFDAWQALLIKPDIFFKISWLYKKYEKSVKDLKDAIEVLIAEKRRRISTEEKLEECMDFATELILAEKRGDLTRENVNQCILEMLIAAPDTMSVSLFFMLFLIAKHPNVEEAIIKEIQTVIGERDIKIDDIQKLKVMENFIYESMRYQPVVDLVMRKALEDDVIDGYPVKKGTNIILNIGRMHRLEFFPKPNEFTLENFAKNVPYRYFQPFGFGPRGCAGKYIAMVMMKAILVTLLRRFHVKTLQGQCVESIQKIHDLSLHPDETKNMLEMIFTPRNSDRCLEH

Aromatase [2] = target: T1, Aromatase; test: Competitive inhibition of human aromatase extracted from placental microsomes by Dixon plot analysis in presence of [1beta-3H]androstenedione; details: read-out: Ki
Aromatase [3] = target: T1, Aromatase; test: Inhibition of human aromatase extracted from placental microsomes using [1beta-3H]androstenedione as substrate after 20 mins by radiometric assay
Aromatase [4] = target: T1, Aromatase; test: Competitive inhibition of human aromatase extracted from placental microsomes after 10 mins in presence of [1beta-3H]androstenedione
Aromatase [5] = target: T1, Aromatase; test: Inhibition of human aromatase extracted from placental microsomes using 4-[14C]androstenedione as substrate at 0.25 to 1.25 uM after 15 mins
Aromatase [6] = target: T1, Aromatase
Aromatase [7] = target: T1, Aromatase; test: Competitive inhibition of human aromatase extracted from placental microsomes by Dixon plot analysis in presence of [1beta-3H]AD; details: read-out: Ki

C[C@]12CC[C@H]3[C@@H](CCC4=CC(=O)CC[C@@]43CN=[N+]=[N-])[C@@H]1CCC2=O
Ki (Aromatase [1]): 5 nM

C[C@]12CC[C@H](OC=O)C=C1C(=O)C[C@@H]1[C@@H]2CC[C@]2(C)C(=O)CC[C@@H]12
Ki (Aromatase [2]): 16000 nM
IC50 (Aromatase [3]): 1700 nM

C/C=C1\C[C@@H]2[C@H](CC[C@]3(C)C(=O)CC[C@@H]23)[C@@]2(C)CCC(=O)C=C12
Ki (Aromatase [4]): 4.9 nM

C[C@@H]1C[C@@H]2[C@H](CC[C@]3(C)C(=O)CC[C@@H]23)[C@@]2(C)CCC(=O)C=C12
Ki (Aromatase [4]): 1.4 nM

C[C@]1(CC#N)CC[C@H]2[C@@H](CCC3=CC(=O)CC[C@@]32C)[C@@H]1CC#N
Ki (Aromatase [1]): 10000 nM

C=C[C@@H]1C[C@@H]2[C@H](CC[C@]3(C)C(=O)CC[C@@H]23)[C@@]2(C)CCC(=O)C=C12
Ki (Aromatase [4]): 5.1 nM

C[C@]12CC[C@H]3[C@@H](CC=C4[C@H]5CSC[C@]43CCC5=O)[C@@H]1CCC2=O
Ki (Aromatase [1]): 10000 nM

CC(=O)NC[C@]12CCC(=O)C=C1CC[C@@H]1[C@@H]2CC[C@]2(C)C(=O)CC[C@@H]12
INH (Aromatase [5]): < 20%

CC1=C[C@@]2(C)C(=CC1=O)[C@@H](Br)C[C@@H]1[C@@H]2CC[C@]2(C)C(=O)CC[C@@H]12
IC50 (Aromatase [3]): 710 nM
Ki (Aromatase [6]): 81 nM

C[C@H]1C[C@@H]2[C@H](CC[C@]3(C)C(=O)CC[C@@H]23)[C@@]2(C)CCC(=O)C=C12
Ki (Aromatase [4]): 1.4 nM

CSC[C@]12CCC(=O)C=C1CC[C@@H]1[C@@H]2CC[C@]2(C)C(=O)CC[C@@H]12
Ki (Aromatase [1]): 1 nM

C#CC[C@@H]1C[C@@H]2[C@H](CC[C@]3(C)C(=O)CC[C@@H]23)[C@@]2(C)CCC(=O)C=C12
Ki (Aromatase [4]): 10 nM

CC[C@@H]1C[C@@H]2[C@H](CC[C@]3(C)C(=O)CC[C@@H]23)[C@@]2(C)CCC(=O)C=C12
Ki (Aromatase [4]): 1.4 nM

C[C@]12CC[C@H]3[C@@H](CCC4=CC(=O)CC[C@@]43/C=N/O)[C@@H]1CCC2=O
INH (Aromatase [5]): < 20%

C[C@]12CCCC=C1C(=O)C[C@@H]1[C@@H]2CC[C@]2(C)C(=O)CC[C@@H]12
Ki (Aromatase [2]): 610 nM
IC50 (Aromatase [3]): 1700 nM

C[C@]12CCC3C(C[C@H]4COC[C@@]35CCC(=O)C=C45)C1CCC2=O (some centres undefined)
Ki (Aromatase [1]): 10000 nM

C[C@]12CCC(=O)C=C1[C@@H](Cc1ccccc1)C[C@@H]1[C@@H]2CC[C@]2(C)C(=O)CC[C@@H]12
Ki (Aromatase [4]): 10 nM

C[C@]12C=C(CCCc3ccccc3)C(=O)C=C1CC[C@@H]1[C@@H]2CC[C@]2(C)C(=O)CC[C@@H]12
IC50 (Aromatase [3]): 140 nM
Ki (Aromatase [6]): 16.1 nM

C#CC[C@H]1C[C@@H]2[C@H](CC[C@]3(C)C(=O)CC[C@@H]23)[C@@]2(C)CCC(=O)C=C12
Ki (Aromatase [4]): 37 nM

CC(=O)O[C@@H]1C=C2C(=O)C[C@@H]3[C@H](CC[C@]4(C)C(=O)CC[C@@H]34)[C@@]2(C)CC1
Ki (Aromatase [2]): 5500 nM
IC50 (Aromatase [3]): 1700 nM

COC(=O)N[C@]12CCC(=O)C=C1CC[C@H]1[C@@H]3CCC(=O)[C@@]3(C)CC[C@@H]12
INH (Aromatase [5]): < 20%

CC1=C[C@@]2(C)C(=CC1=O)CC[C@@H]1[C@@H]2CC[C@]2(C)C(=O)CC[C@@H]12
IC50 (Aromatase [3]): 580 nM
Ki (Aromatase [6]): 46 nM

C=CC1OC2(O)CC[C@]13C(=CC[C@@H]1[C@@H]3CC[C@]3(C)C(=O)CC[C@@H]13)C2 (some centres undefined)
Ki (Aromatase [1]): 10000 nM

CCCC[C@@H]1C[C@@H]2[C@H](CC[C@]3(C)C(=O)CC[C@@H]23)[C@@]2(C)CCC(=O)C=C12
Ki (Aromatase [4]): 1.4 nM

CCCC[C@H]1C[C@@H]2[C@H](CC[C@]3(C)C(=O)CC[C@@H]23)[C@@]2(C)CCC(=O)C=C12
Ki (Aromatase [4]): 1.4 nM

C[C@]12CC[C@H]3[C@@H](CCC4=CC(=O)CC[C@@]43C(=O)C(F)(F)F)[C@@H]1CCC2=O
IC50 (Aromatase [1]): 26000 nM

C[C@]12CC[C@H]3[C@@H](CCC4=CC(=O)[C@H]5CC[C@]43C5)[C@@H]1CCC2=O
Ki (Aromatase [1]): 10000 nM

CCO[C@@H]1C[C@@]2(C)C(=CC1=O)CC[C@@H]1[C@@H]2CC[C@]2(C)C(=O)CC[C@@H]12
Ki (Aromatase [7]): 670 nM
